Measured values taken from publication PMC5358388 (Proceedings of the National Academy of Sciences of the …, 2017).
Read-outs that look alike come from different tables or passages of the source.

Experiments:
[1] = tested on: cytosolic labile heme in P. falciparum; assay type: cell-based, Plasmodium falciparum
P. falciparum = test: Growth inhibition of P. falciparum lines by chloroquine; assay type: cell-based; details: Plasmodium falciparum

| SMILES | average Δ[heme], increase in labile heme concentration vs untreated control ([1]; 60 nM chloroquine, four independent experiments, P = 0.002) | lower bound on labile cytosolic heme level ([1]; 60 nM chloroquine, assuming no chloroquine in the cytosol) [µM] | upper bound on labile cytosolic heme level ([1]; 60 nM chloroquine, assuming ≥1:1 chloroquine:heme in the cytosol) [µM] | IC50 (P. falciparum; read-out: chloroquine IC50 (95% CI), parasites expressing CH49Y) [nM] | IC50 (P. falciparum; read-out: chloroquine IC50 (95% CI), parental NF54attB line) [nM] | change in labile heme concentration, treated vs untreated parasites ([1]; pyrimethamine 125 and 500 nM, 32 h) |
| --- | --- | --- | --- | --- | --- | --- |
| CCN(CC)CCCC(C)Nc1ccnc2cc(Cl)ccc12 (stereo not drawn) [chloroquine] | +0.86 µM | ~2.8 | ~7 | 10.3 to 11.3 | 8.2 to 9.7 |  |
| CCc1nc(N)nc(N)c1-c1ccc(Cl)cc1 [pyrimethamine] |  |  |  |  |  | No increase in labile heme concentration |
